Experimental data as given in PubChem BioAssay AID1259407 (Chemical Carcinogenesis Research Information System (CCRIS), 2018).
Activity calls are given as the source filed them. How the calls were made is not given here.

System: CCRIS mutagenicity, Ames/micronucleus/aberration tests
Test: CCRIS mutagenicity studies

Measured: mutagenic call

O=C(O)c1ccccc1C(=O)O
inactive: End Point: In vitro chromosomal aberrations, Test System: Chinese hamster ovary (CHO) cells, Metabolic Activation: None inactive; negative | End Point: In vitro chromosomal aberrations, Test System: Chinese hamster ovary (CHO) cells, Metabolic Activation: Rat, liver, S-9, Aroclor 1254, 10% inactive; negative | End Point: In vivo micronucleus, Test System: Bone marrow polychromatic erythrocytes, Species: Mouse, Strain/Sex: ICR/Male, Route: Intraperitoneal inactive; negative | Test System: AMES SALMONELLA TYPHIMURIUM, Strain/Indicator: TA97, Metabolic Activation: HAMSTER, LIVER, S-9, AROCLOR 1254, 10%, Method: PREINCUBATION inactive; negative | Test System: AMES SALMONELLA TYPHIMURIUM, Strain/Indicator: TA97, Metabolic Activation: HAMSTER, LIVER, S-9, AROCLOR 1254, 30%, Method: PREINCUBATION inactive; negative | Test System: AMES SALMONELLA TYPHIMURIUM, Strain/Indicator: TA97, Metabolic Activation: NONE, Method: PREINCUBATION inactive; negative | Test System: AMES SALMONELLA TYPHIMURIUM, Strain/Indicator: TA97, Metabolic Activation: RAT, LIVER, S-9, AROCLOR 1254, 10%, Method: PREINCUBATION inactive; negative | Test System: AMES SALMONELLA TYPHIMURIUM, Strain/Indicator: TA97, Metabolic Activation: RAT, LIVER, S-9, AROCLOR 1254, 30%, Method: PREINCUBATION inactive; negative | Test System: AMES SALMONELLA TYPHIMURIUM, Strain/Indicator: TA97, Metabolic Activation: RAT, LIVER, S-9, PHENOBARBITAL AND 5,6-BENZOFLAVONE, Method: PREINCUBATION inactive; negative | Test System: AMES SALMONELLA TYPHIMURIUM, Strain/Indicator: TA98, Metabolic Activation: HAMSTER, LIVER, S-9, AROCLOR 1254, 10%, Method: PREINCUBATION inactive; negative | Test System: AMES SALMONELLA TYPHIMURIUM, Strain/Indicator: TA98, Metabolic Activation: HAMSTER, LIVER, S-9, AROCLOR 1254,(30%, Method: PREINCUBATION inactive; negative | Test System: AMES SALMONELLA TYPHIMURIUM, Strain/Indicator: TA98, Metabolic Activation: NONE, Method: PREINCUBATION inactive; negative | Test System: AMES SALMONELLA TYPHIMURIUM, Strain/Indicator: TA98, Metabolic Activation: RAT, LIVER, S-9, AROCLOR 1254, 10%, Method: PREINCUBATION inactive; negative | Test System: AMES SALMONELLA TYPHIMURIUM, Strain/Indicator: TA98, Metabolic Activation: RAT, LIVER, S-9, AROCLOR 1254, 30%, Method: PREINCUBATION inactive; negative | Test System: AMES SALMONELLA TYPHIMURIUM, Strain/Indicator: TA98, Metabolic Activation: RAT, LIVER, S-9, PHENOBARBITAL AND 5,6-BENZOFLAVONE, Method: PREINCUBATION inactive; negative | Test System: AMES SALMONELLA TYPHIMURIUM, Strain/Indicator: TA100, Metabolic Activation: HAMSTER, LIVER, S-9, AROCLOR 1254, 10%, Method: PREINCUBATION inactive; negative | Test System: AMES SALMONELLA TYPHIMURIUM, Strain/Indicator: TA100, Metabolic Activation: HAMSTER, LIVER, S-9, AROCLOR 1254, 30%, Method: PREINCUBATION inactive; negative | Test System: AMES SALMONELLA TYPHIMURIUM, Strain/Indicator: TA100, Metabolic Activation: NONE, Method: PREINCUBATION inactive; negative | Test System: AMES SALMONELLA TYPHIMURIUM, Strain/Indicator: TA100, Metabolic Activation: RAT, LIVER, S-9, AROCLOR 1254, 10%, Method: PREINCUBATION inactive; negative | Test System: AMES SALMONELLA TYPHIMURIUM, Strain/Indicator: TA100, Metabolic Activation: RAT, LIVER, S-9, AROCLOR 1254, 30%, Method: PREINCUBATION inactive; negative | Test System: AMES SALMONELLA TYPHIMURIUM, Strain/Indicator: TA100, Metabolic Activation: RAT, LIVER, S-9, PHENOBARBITAL AND 5,6-BENZOFLAVONE, Method: PREINCUBATION inactive; negative | Test System: AMES SALMONELLA TYPHIMURIUM, Strain/Indicator: TA102, Metabolic Activation: NONE, Method: PREINCUBATION inactive; negative | Test System: AMES SALMONELLA TYPHIMURIUM, Strain/Indicator: TA102, Metabolic Activation: RAT, LIVER, S-9, PHENOBARBITAL AND 5,6-BENZOFLAVONE, Method: PREINCUBATION inactive; negative | Test System: AMES SALMONELLA TYPHIMURIUM, Strain/Indicator: TA104, Metabolic Activation: NONE, Method: PREINCUBATION inactive; negative | Test System: AMES SALMONELLA TYPHIMURIUM, Strain/Indicator: TA104, Metabolic Activation: RAT, LIVER, S-9, PHENOBARBITAL AND 5,6-BENZOFLAVONE, Method: PREINCUBATION inactive; negative | Test System: AMES SALMONELLA TYPHIMURIUM, Strain/Indicator: TA1535, Metabolic Activation: HAMSTER, LIVER, S-9, AROCLOR 1254, 10%, Method: PREINCUBATION inactive; negative | Test System: AMES SALMONELLA TYPHIMURIUM, Strain/Indicator: TA1535, Metabolic Activation: HAMSTER, LIVER, S-9, AROCLOR 1254, 30%, Method: PREINCUBATION inactive; negative | Test System: AMES SALMONELLA TYPHIMURIUM, Strain/Indicator: TA1535, Metabolic Activation: NONE, Method: PREINCUBATION inactive; negative | Test System: AMES SALMONELLA TYPHIMURIUM, Strain/Indicator: TA1535, Metabolic Activation: RAT, LIVER, S-9, AROCLOR 1254 (10%), Method: PREINCUBATION inactive; negative | Test System: AMES SALMONELLA TYPHIMURIUM, Strain/Indicator: TA1535, Metabolic Activation: RAT, LIVER, S-9, AROCLOR 1254, 30%, Method: PREINCUBATION inactive; negative | Test System: Ames Salmonella typhimurium, Strain/Indicator: TA98, Metabolic Activation: None, Method: Preincubation inactive; negative | Test System: Ames Salmonella typhimurium, Strain/Indicator: TA98, Metabolic Activation: Rat, Liver, S-9, Aroclor 1254, Method: Preincubation inactive; negative | Test System: Ames Salmonella typhimurium, Strain/Indicator: TA100, Metabolic Activation: None, Method: Preincubation inactive; negative | Test System: Ames Salmonella typhimurium, Strain/Indicator: TA100, Metabolic Activation: Rat, liver, S-9, Aroclor 1254, Method: Preincubation inactive; negative | Test System: Ames Salmonella typhimurium, Strain/Indicator: TA102, Metabolic Activation: None, Method: Preincubation inactive; negative | Test System: Ames Salmonella typhimurium, Strain/Indicator: TA102, Metabolic Activation: Rat, liver, S-9, Aroclor 1254, Method: Preincubation inactive; negative | Test System: Ames Salmonella typhimurium, Strain/Indicator: TA1535, Metabolic Activation: None, Method: Preincubation inactive; negative | Test System: Ames Salmonella typhimurium, Strain/Indicator: TA1535, Metabolic Activation: Rat, liver, S-9, Aroclor 1254, Method: Preincubation inactive; negative | Test System: Ames Salmonella typhimurium, Strain/Indicator: TA1537, Metabolic Activation: None, Method: Preincubation inactive; negative | Test System: Ames Salmonella typhimurium, Strain/Indicator: TA1537, Metabolic Activation: Rat, liver, S-9, Aroclor 1254, Method: Preincubation inactive; negative
